# Tests used:
# Assay in all cases: relative viability (nuclei count vs DMSO), 5 days (fraction); higher = more cells survive
# [1] = compound: O=S(=O)(c1ccccc1)N(CC(F)(F)F)c1ccc(C(O)(C(F)(F)F)C(F)(F)F)cc1 + CC(=O)c1c(C)c2cnc(Nc3ccc(N4CCNCC4)cn3)nc2n(C2CCCC2)c1=O [Palbociclib] (partner 0.5 µM)
# Summary of the method: (§1)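 After 5 days of treatment, lung cancer cells in 1536-well plates were fixed and stained in a single step (final 0.05% Triton X-100, 1% formaldehyde, 1 ug/ml Hoechst) and their nuclei counted on 4× images. Treatment had been applied by pin tool the day after seeding as one drug alone or as a fixed anchor-drug dose with five library-drug doses (not always all listed) in √10 steps. Relative viability is the nuclei count of treated wells divided by that of vehicle wells, and values are medians of duplicate plates.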
# RO-3306 + Pictilisib = compound: C1=CC2=C(C=CC(=C2)C=C3C(=O)NC(=NCC4=CC=CS4)S3)N=C1 [RO-3306] + CS(=O)(=O)N1CCN(Cc2cc3nc(-c4cccc5[nH]ncc45)nc(N4CCOCC4)c3s2)CC1 [Pictilisib] (partner 1 µM)
# Summary of the method: as §1
# RO-3306 + Olaparib = compound: C1=CC2=C(C=CC(=C2)C=C3C(=O)NC(=NCC4=CC=CS4)S3)N=C1 [RO-3306] + O=C(c1cc(Cc2n[nH]c(=O)c3ccccc23)ccc1F)N1CCN(C(=O)C2CC2)CC1 [Olaparib] (partner 8 µM)
# Summary of the method: as §1
# [2] = compound: O=S(=O)(c1ccccc1)N(CC(F)(F)F)c1ccc(C(O)(C(F)(F)F)C(F)(F)F)cc1 + O=C(c1cc(Cc2n[nH]c(=O)c3ccccc23)ccc1F)N1CCN(C(=O)C2CC2)CC1 [Olaparib] (partner 8 µM)
# Summary of the method: as §1
# [3] = compound: O=S(=O)(c1ccccc1)N(CC(F)(F)F)c1ccc(C(O)(C(F)(F)F)C(F)(F)F)cc1 + NC(=O)Nc1cc(-c2cccc(F)c2)sc1C(=O)N[C@H]1CCCNC1 [AZD7762] (partner 0.2 µM)
# Summary of the method: as §1
Cell Line,relative viability ([1]; first compound 0.8 µM),relative viability ([1]; first compound 2.53 µM),relative viability ([1]; first compound 8 µM),relative viability (RO-3306 + Pictilisib; first compound 0.01 µM),relative viability (RO-3306 + Pictilisib; first compound 0.03162 µM),relative viability (RO-3306 + Pictilisib; first compound 0.1 µM),relative viability (RO-3306 + Pictilisib; first compound 0.3162 µM),relative viability (RO-3306 + Pictilisib; first compound 1 µM),relative viability (RO-3306 + Olaparib; first compound 0.01 µM),relative viability (RO-3306 + Olaparib; first compound 0.03162 µM),relative viability (RO-3306 + Olaparib; first compound 0.1 µM),relative viability (RO-3306 + Olaparib; first compound 0.3162 µM),relative viability (RO-3306 + Olaparib; first compound 1 µM),relative viability ([2]; first compound 0.8 µM),relative viability ([2]; first compound 2.53 µM),relative viability ([2]; first compound 8 µM),relative viability ([3]; first compound 0.8 µM),relative viability ([3]; first compound 2.53 µM),relative viability ([3]; first compound 8 µM)
SK-LU-1,0.358,0.423,0.376,0.539,0.603,0.651,0.671,0.521,0.425,0.415,0.458,0.663,0.425,0.446,0.472,0.433,–,–,–
NCI-H2228,0.989,0.639,0.722,0.456,0.37,0.363,0.381,0.269,0.603,0.601,0.645,0.654,0.524,0.678,0.578,0.589,–,–,–
NCI-H1563,–,–,–,0.641,0.597,0.69,0.62,0.59,–,–,–,–,–,–,–,–,–,–,–
SK-MES-1,0.351,0.354,0.277,0.324,0.334,0.353,0.413,0.355,0.805,0.671,0.601,0.677,0.665,0.743,0.728,0.579,–,–,–
NCI-H2009,0.174,0.238,0.223,0.96,0.712,0.806,0.753,0.636,0.789,0.684,0.694,0.796,0.727,0.663,0.685,0.648,–,–,–
COR-L 105,0.328,0.411,0.378,0.355,0.364,0.361,0.47,0.366,0.661,0.798,0.633,0.715,0.601,0.69,0.602,0.546,–,–,–
NCI-H1703,–,–,–,0.241,0.221,0.237,0.241,0.254,0.387,0.38,0.387,0.389,0.429,0.53,0.387,0.446,0.132,0.119,0.132
NCI-H1650,0.308,0.276,0.367,0.491,0.503,0.48,0.583,0.414,0.933,0.718,0.809,0.784,0.656,0.792,0.678,0.743,–,–,–
NCI-H661,0.426,0.386,0.396,0.41,0.377,0.356,0.392,0.363,0.751,0.754,0.741,0.755,0.818,0.774,0.779,0.768,–,–,–
NCI-H2342,0.592,0.545,0.502,–,–,–,–,–,0.574,0.499,0.428,0.437,0.379,0.475,0.504,0.429,0.527,0.559,0.477
NCI-H1648,0.258,0.274,0.29,–,–,–,–,–,0.679,–,0.927,0.767,0.885,0.835,0.542,0.602,0.694,0.505,0.707

# Source: the supplement of paper PMC10307832
